Data on seven compounds can be found in patent publication US7799785B2, “Substituted tetracyclic tetahydrofuran, pyrrolidine and tetrahydrothiophene derivatives” (Janssen Pharmaceutica NV, priority 2004, dated 2010).

In data set [1] the target is T1, human Dopamine D2L receptor (Homo sapiens, UniProt P14416).
T1 construct: expressed in transfected cells; host or cells: CHO cells
In words: In vitro binding affinity for human D2L receptor ([3H]Spiperone). Particulars: human D2L receptor-transfected CHO cell membranes. The protocol: In vitro Binding Affinity for Human D2L Receptor
Frozen membranes of human Dopamine D2L receptor-transfected CHO cells were thawed, briefly homogenised using an Ultra-Turrax T25 homogeniser and diluted in Tris-HCl assay buffer containing NaCl, CaCl2, MgCl2, KCl (50, 120, 2, 1, and 5 mM respectively, adjusted to pH 7.7 with HCl) to an appropriate protein concentration optimised for specific and non-specific binding. Radioligand [^3H]Spiperone (NEN, specific activity ˜70 Ci/mmol) was diluted in assay buffer at a concentration of 2 nmol/L. Prepared radioligand (50 μl), along with 50 μl of either the 10% DMSO control, Butaclamol (10^−6 mol/l final concentration), or compound of interest, was then incubated (30 min, 37° C.) with 400 μl of the prepared membrane solution. Membrane-bound activity was filtered through a Packard Filtermate harvester onto GF/B Unifilterplates and washed with ice-cold Tris-HCl buffer (50 mM; pH 7.7; 6×0.5 ml). Filters were allowed to dry before adding scintillation fluid and counting in a Topcount scintillation counter. Percentage specific bound and competition binding curves were calculated using S-Plus software (Insightful).

Data set [2] deals with T2, human cloned 5-HT2A receptor, expressed in L929 cells (Homo sapiens, UniProt P28223).
T2 construct: expressed in transfected cells; host or cells: L929 cells
T2 sequence (P28223 whole entry): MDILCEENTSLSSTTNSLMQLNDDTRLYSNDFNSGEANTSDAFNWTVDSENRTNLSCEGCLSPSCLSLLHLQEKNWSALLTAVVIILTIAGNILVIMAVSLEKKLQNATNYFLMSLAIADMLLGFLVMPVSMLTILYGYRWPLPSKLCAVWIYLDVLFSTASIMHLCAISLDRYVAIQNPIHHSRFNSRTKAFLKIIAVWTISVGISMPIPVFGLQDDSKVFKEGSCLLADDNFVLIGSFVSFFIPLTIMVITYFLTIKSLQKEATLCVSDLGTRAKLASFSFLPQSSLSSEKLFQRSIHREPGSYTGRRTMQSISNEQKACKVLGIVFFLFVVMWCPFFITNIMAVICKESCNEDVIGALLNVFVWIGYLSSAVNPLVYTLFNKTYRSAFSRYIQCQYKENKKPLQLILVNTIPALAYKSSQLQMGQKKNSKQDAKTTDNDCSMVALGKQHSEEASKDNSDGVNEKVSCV
In words: In vitro radioligand binding affinity for 5-HT2A receptor ([125I]R91150). Conditions: read-out: h-5HT2A (converted). The protocol: (§1) In vitro Binding Affinity for 5-HT2A and 5-HT2C Receptors
The interaction of the compounds of Formula (I) with 5-HT2A and 5-HT2C receptors was assessed in in vitro radioligand binding experiments. In general, a low concentration of a radioligand with a high binding affinity for the receptor is incubated with a sample of a tissue preparation enriched in a particular receptor (1 to 5 mg tissue) in a buffered medium (0.2 to 5 ml). During the incubation, the radioligands bind to the receptor. When equilibrium of binding is reached, the receptor bound radioactivity is separated from the non-bound radioactivity, and the receptor bound activity is counted. The interaction of the test compounds with the receptors is assessed in competition binding experiments. Various concentrations of the test compound are added to the incubation mixture containing the tissue preparation and the radioligand. Binding of the radioligand will be inhibited by the test compound in proportion to its binding affinity and its concentration. The affinities of the compounds for the 5-HT2 receptors were measured by means of radioligand binding studies conducted with: (a) human cloned 5-HT2A receptor, expressed in L929 cells using [^125I]R91150 as radioligand and (b) human cloned 5-HT2C receptor, expressed in CHO cells using [^3H]mesulergine as radioligand.

Another data set concerns the target T3, NET (Rattus norvegicus, UniProt Q63380).
T3 construct: Cortex from rat brain was collected and homogenised; from tissue; host or cells: rat brain cortex homogenate/membranes
In words: In vitro determination of NET reuptake inhibition ([3H]Nixosetine binding, rat brain cortex membranes). How it is done:
In vitro Determination of NET Reuptake Inhibition
Cortex from rat brain was collected and homogenised using an Ultra-Turrax T25 and a Dual homogeniser in ice-cold homogenising buffer containing Tris, NaCl and KCl (50 mM, 120 mM and 5 mM, respectively, pH 7.4) prior to dilution to an appropriate protein concentration optimised for specific and non-specific binding. […] Membrane-bound activity was detected by filtration through a Packard Filtermate harvester onto GF/B Unifilterplates, washed with ice-cold Tris-HCl buffer, containing NaCl and KCl (50 mM, 120 mM and 4 mM; pH 7.4; 6×0.5 ml). Filters were allowed to dry for 24 h before adding scintillation fluid. Scintillation fluid was allowed to saturate filters for 24 h before counting in a Topcount scintillation counter. Percentage specific bound and competition binding curves were calculated using S-Plus software (Insightful).

Data set [3] concerns the target T4, human cloned 5-HT2C receptor, expressed in CHO cells (Homo sapiens, UniProt P28335).
T4 construct: expressed in transfected cells; host or cells: CHO cells
T4 sequence (P28335 33-458): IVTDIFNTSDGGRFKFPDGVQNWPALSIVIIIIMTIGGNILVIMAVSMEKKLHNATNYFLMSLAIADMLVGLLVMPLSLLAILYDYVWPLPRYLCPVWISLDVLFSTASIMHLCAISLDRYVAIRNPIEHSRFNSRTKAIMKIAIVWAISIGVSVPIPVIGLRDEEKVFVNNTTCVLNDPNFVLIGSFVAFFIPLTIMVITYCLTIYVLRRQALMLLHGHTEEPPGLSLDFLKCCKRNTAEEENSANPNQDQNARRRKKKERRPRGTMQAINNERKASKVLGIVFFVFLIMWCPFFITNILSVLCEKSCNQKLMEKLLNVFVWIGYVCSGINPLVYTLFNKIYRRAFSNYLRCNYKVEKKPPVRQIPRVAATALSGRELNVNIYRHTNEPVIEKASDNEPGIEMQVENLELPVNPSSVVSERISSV
In words: In vitro radioligand binding affinity for 5-HT2C receptor ([3H]mesulergine). The protocol:
as §1
The interaction of the compounds of Formula (I) with 5-HT2A and 5-HT2C receptors was assessed in in vitro radioligand binding experiments. […] During the incubation, the radioligands bind to the receptor. When equilibrium of binding is reached, the receptor bound radioactivity is separated from the non-bound radioactivity, and the receptor bound activity is counted. The interaction of the test compounds with the receptors is assessed in competition binding experiments. Various concentrations of the test compound are added to the incubation mixture containing the tissue preparation and the radioligand. Binding of the radioligand will be inhibited by the test compound in proportion to its binding affinity and its concentration.

Where only a bound is given, the exact number is not on record here.

T3 sequence (Q63380 1-617): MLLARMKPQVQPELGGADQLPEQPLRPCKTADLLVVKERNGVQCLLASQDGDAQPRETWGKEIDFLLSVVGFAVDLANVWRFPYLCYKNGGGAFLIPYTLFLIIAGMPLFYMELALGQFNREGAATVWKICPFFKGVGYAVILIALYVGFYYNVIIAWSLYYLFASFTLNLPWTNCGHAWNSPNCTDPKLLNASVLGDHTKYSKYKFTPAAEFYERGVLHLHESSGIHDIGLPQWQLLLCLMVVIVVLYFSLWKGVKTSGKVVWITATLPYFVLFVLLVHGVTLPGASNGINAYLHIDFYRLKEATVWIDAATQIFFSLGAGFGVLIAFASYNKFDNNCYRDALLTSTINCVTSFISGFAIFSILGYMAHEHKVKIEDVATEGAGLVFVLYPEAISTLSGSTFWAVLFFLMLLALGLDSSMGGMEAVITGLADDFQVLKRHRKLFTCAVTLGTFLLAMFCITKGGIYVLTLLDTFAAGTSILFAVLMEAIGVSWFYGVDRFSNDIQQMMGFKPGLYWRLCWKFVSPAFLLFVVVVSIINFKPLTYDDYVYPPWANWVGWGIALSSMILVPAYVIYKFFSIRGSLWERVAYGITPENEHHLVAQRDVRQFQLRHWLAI
T1 sequence (P14416 whole entry): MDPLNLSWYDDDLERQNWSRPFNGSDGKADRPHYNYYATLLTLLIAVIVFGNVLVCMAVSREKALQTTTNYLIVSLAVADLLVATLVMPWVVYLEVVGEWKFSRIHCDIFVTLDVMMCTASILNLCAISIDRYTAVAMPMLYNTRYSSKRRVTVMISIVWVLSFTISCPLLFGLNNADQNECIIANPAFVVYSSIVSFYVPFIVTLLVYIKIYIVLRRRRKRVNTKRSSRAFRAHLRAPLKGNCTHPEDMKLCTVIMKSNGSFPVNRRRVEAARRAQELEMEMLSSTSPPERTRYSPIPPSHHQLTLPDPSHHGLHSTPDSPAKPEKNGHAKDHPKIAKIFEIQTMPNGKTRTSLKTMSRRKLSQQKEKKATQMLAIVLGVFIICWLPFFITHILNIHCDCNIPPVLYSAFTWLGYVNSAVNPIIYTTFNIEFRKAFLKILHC

`CN[C@@H]1CO[C@@H]2c3cc(F)ccc3Cc3ccccc3[C@H]2C1` (relative stereo) [compound 35, (3S *,4aR*,13bS*)-12-fluoro-N-methyl-2,3,4,4a,9,13b-hexahydrodibenzo[3,4:6,7]-cyclohepta[1,2-b]pyran-3-amine]: the IC50 (in data set [1]; in data set [2]; on NET) was more than 1 µM in each case.

On to `COC(=O)N1[C@@H](CN(C)C)C[C@@H]2c3ccccc3Cc3ccc(F)cc3[C@H]21` [36a, Methyl(2R,3aR,12bS)-2-[(dimethylamino)methyl]-11-fluoro-3,3a,8,12b-tetrahydro-dibenzo[3,4:6,7]cyclohepta[1,2-b]pyrrole-1(2H)-carboxylate], for which the IC50 in data set [3] was more than 1 µM; in data set [1], more than 1 µM; in data set [2], more than 1 µM; on NET it was 0.692 µM.

On to `CN(C)C[C@H]1C[C@@H]2c3ccccc3Cc3ccc(F)cc3[C@H]2N1C=O` [36c, (2R,3aR,12bS)-2-[(dimethylamino)methyl]-11-fluoro-3,3a,8,12b-tetrahydrodibenzo[3,4:6,7]cyclohepta[1,2-b]pyrrole-1(2H)-carbaldehyde], for which the IC50 in data set [3] is 0.0776 µM; in data set [1], 4.9 µM; in data set [2], 0.55 µM; on NET, 0.224 µM.

`CN(CCO)C[C@H]1C[C@@H]2c3ccccc3Cc3ccc(F)cc3[C@H]2N1` [43b, 2-[{[(2R,3aR,12bS)-11-fluoro-1,2,3,3a,8,12b-hexahydrodibenzo[3,4:6,7]-cyclohepta[1,2-b]pyrrol-2-yl]methyl}(methyl)amino]-ethanol]: the IC50 is 0.0891 µM in data set [3], 0.437 µM in data set [1], 0.0676 µM in data set [2] and 0.0158 µM on NET.

For the compound `Fc1ccc2c(c1)[C@@H]1[C@H](C[C@@H]3CNC(=S)N31)c1ccccc1C2` [compound 8, (4aS,13bR,14aR)-6-fluoro-1,4a,9,13b,14,14a-hexahydrodibenzo[3′,4′:6′,7′]-cyclohepta[1′,2′:4,5]pyrrolo[1,2-c]imidazole-3(2H)-thione], the melting point lay within 150 to 151 °C. For the same compound, the “NET Reuptake Inhibition” value at NET is 5.66.

Turning to `CN1CC(=O)N2[C@H](C[C@@H]3c4ccccc4Cc4ccc(F)cc4[C@H]32)C1` [compound 13, (5aS,14bR,15aR)-7-fluoro-2-methyl-1,2,3,5a,10,14b,15,15a-octahydro-4H-dibenzo-[3′,4′:6′,7′]cyclohepta[1′,2′:4,5]pyrrolo[1,2-a]pyrazin-4-one], the melting point lay in the range of 139 to 141 °C. Moreover, the “NET Reuptake Inhibition” value at NET was less than 5.

`N[C@@H]1CO[C@H]2c3cc(F)ccc3Cc3ccccc3[C@H]2C1` [compound 30, (3S,4aR,13bR)-12-fluoro-2,3,4,4a,9,13b-hexahydrodibenzo[3,4:6,7]cyclohepta-[1,2-b]pyran-3-amine]: the melting point is 74 to 76 °C. The IC50 on NET is 0.302 µM.

The term melting point denotes the temperature, or range, at which the solid turns liquid.
